This is an account of results in patent US8217172B2, “Solid forms of 1-ethyl-3-(5-(5-fluoropyridin-3-yl)-7-(pyrimidin-2-yl)-1H-benzo[d]imidazol-2-yl)urea” (Vertex Pharmaceuticals Incorporated, priority 2007, dated 2012).

Structures are written as SMILES.

The solubility is how much of the substance goes into solution per volume. Higher therefore signals a readily soluble substance.

Type in all cases: physicochemical
Data set [1] is described as follows: Dynamic Vapor Sorption (DVS), step isothermal study. Particulars: 25° C. As to the method:
Dynamic Vapor Sorption (DVS): A step isothermal study (25° C.) was conducted on a representative sample of form IA using a VTI SGA 100 Symmetric Vapor Sorption Analyzer. An aliquot of approximately 10 mg was weighed in an open platinum dish and exposed to different levels of humidity at 25° C. Relative humidity (RH) steps were from 5% to 95% (adsorption) and from 95% to 5% in increments of 5% RH (desorption). The equilibration criterion was 0.0100 wt % change in 5 min, with a max equilibration time of 180 min. The sample picked up ˜8 wt % moisture at 95% relative humidity (RH).
Dynamic Vapor Sorption (DVS): A step isothermal study (25° C.) was conducted on a sample of form IIA using a VTI SGA 100 Symmetric Vapor Sorption Analyzer. An aliquot of approximately 10 mg was weighed in an open platinum dish and exposed to different levels of humidity at 25° C. Relative humidity (RH) steps were from 5% to 95% (adsorption) and from 95% to 5% in increments of 5% RH (desorption). The equilibration criterion was 0.0100 wt % change in 5 min, with a max equilibration time of 180 min. The material picked up ˜11 wt % moisture at 95% relative humidity (RH).
Dynamic Vapor Sorption (DVS): A step isothermal study (25° C.) was conducted on a sample of form IIC using a VTI SGA 100 Symmetric Vapor Sorption Analyzer. An aliquot of approximately 10 mg was weighed in an open platinum dish and exposed to different levels of humidity at 25° C. Relative humidity (RH) steps were from 5% to 95% (adsorption) and from 95% to 5% in increments of 5% RH (desorption). The equilibration criterion was 0.0100 wt % change in 5 min, with a max equilibration time of 180 min. The material picked up ˜4 wt % moisture at 95% relative humidity (RH).
Water Vapor Sorption analysis: Vapor Sorption analysis of a sample of form IIIB was done using a SGA-100 Vapor Sorption Analyzer (VTI, Hialeah, Fla.). A sample with weight of approximately 7-12 mg was measured isothermally at 25° C. Data was collected by Isotherm software and analyzed by Microsoft Excel with a VTI macro (VTI, Hialeah, Fla.). The sample gained about 4.6% in weight from 5 to 95% RH (25° C.).

A short description of data set [2]: Solubility in various media (equilibration on a shaking bed for 24 hours, HPLC). Particulars: aqueous solution, pH of about 1.6. The protocol: Solubility: The solubility of form IA in various media was determined at ambient conditions by equilibrating aliquots of the drug powder with the solvents on a shaking bed for 24 hours. The samples were centrifuged, the saturated solutions of the drug were then separated and analyzed by HPLC. The sample volume was 100 μL and the target concentration was 10 mg/mL. The saturated solutions were diluted appropriately and analyzed by HPLC.
Solubility: Solubility of form IIC in various media was determined at ambient conditions by equilibrating aliquots of the drug powder with the solvents on a shaking bed for 24 hours. Samples were spun and the supernatant was carefully separated and analyzed by HPLC at the 24-hour timepoint using a stability-indicating method. […] Some variability may occur between lots of a particular sample.
Solubility: Solubility of form IIIB in various media was determined at ambient conditions by equilibrating aliquots of the drug powder with the medium on a shaking bed for 24 hours. The samples were centrifuged, the saturated solutions of the drug were then separated and analyzed by HPLC. The sample volume was 100 μL, and the target concentration was 10 mg/ml. The saturated solutions were diluted appropriately and analyzed by HPLC.

A short description of data set [3]: Stability analysis (chemical stability by HPLC, physical stability by XRPD). Particulars: 40° C./75% RH for about 24 hours or for about 2 weeks. The text has this: In some embodiments, less than 25% of the form of Compound 1 decomposes, in some embodiments, less than about 20%, less than about 15%, less than about 10%, less than about 5%, less than about 3%, less than about 1%, less than about 0.5% of the form of Compound 1 decomposes under the conditions specified. In some embodiments, no detectable amount of the form of Compound 1 decomposes.
In some embodiments, less than 25% of the form of Compound 1 changes into one or more different physical forms when subjected to specified conditions, In some embodiments, less than about 20%, less than about 15%, less than about 10%, less than about 5%, less than about 3%, less than about 1%, less than about 0.5% of the form of Compound 1 changes into one or more different physical forms of Compound 1 when subjected to specified conditions. In some embodiments, no detectable amount of the form of Compound 1 changes into one or more different physical forms of Compound 1.

On to `CCNC(=O)Nc1nc2cc(-c3cncc(F)c3)cc(-c3ncccn3)c2[nH]1.CCS(=O)(=O)O` [Form IIA, 1-ethyl-3-(5-(5-fluoropyridin-3-yl)-7-(pyrimidin-2-yl)-1H-benzo[d]imidazol-2-yl)urea•monoesylate], for which, in data set [1] (DVS, 95% to 5% RH), the “release of adsorbed water in the desorption stage” value is recorded as “Not all of the adsorbed water was released”. Further, the “moisture picked up at 95% relative humidity (RH)” value in data set [1] (DVS, adsorption 5% to 95% RH) is listed as approximately 11 wt %. Also, the “weight gain from 5% to 95% relative humidity” value in data set [1] (step isothermic study (DVS)) was “about 10%”. Moreover, in data set [2], the solubility was more than 150 mg/mL. Further, the “change of solid form on storage” value in data set [3] was “converted to form IIB”.
